Measurements reported in patent publication US4374147A, “13-Oxo-monic acid esters useful as antibacterial and antimycoplasmal agents” (Beecham Group Limited, priority 1980, dated 1983).

Legend:
[1] = tested on: Haemophilus influenzae Q1; experiment: MIC by serial dilution in nutrient agar (human bacteria, Table 1); type: cell-based; details: Haemophilus influenzae, Q1
[2] = tested on: Neisseria catarrhalis 1502; experiment: as above; type: cell-based; details: 5% "chocolated" horse blood
[3] = tested on: Strep.pyogenes A 64/848; experiment: as above; type: cell-based; details: Streptococcus pyogenes, A64/848, 5% "chocolated" horse blood
[4] = tested on: Staph.aureus Oxford; experiment: as above; type: cell-based; details: Staphylococcus aureus; Staph.aureus Oxford; nutrient agar, 5% "chocolated" horse blood; read-out: MIC
[5] = tested on: K. aerogenes A; experiment: as above; type: cell-based; details: Klebsiella aerogenes, 5% "chocolated" horse blood
[6] = tested on: E.coli NCTC 10418; experiment: as above; type: cell-based; details: Escherichia coli, NCTC10418, 5% "chocolated" horse blood
[7] = tested on: P. mirabilis 889; experiment: as above; type: cell-based; details: Proteus mirabilis, 5% "chocolated" horse blood
[8] = tested on: M.suipneumoniae J2206/183b; experiment: Anti-mycoplasmal MIC by serial dilution in Friis broth (Table 3); type: cell-based; details: Mesomycoplasma hyopneumoniae, read-out: in vitro MIC
Source text: (§1) *Determined by serial dilution in Friis broth (Friis N.F. 1975. Nord. Vet
(§2) Med. 27, 337) in microtiter plates using a modification of the metabolite
(§3) inhibition test (TaylorRobinson D. 1967. Postgrad. Med. J., 43, suppl.

[9] = tested on: M.pneumoniae 427a; experiment: as above; type: cell-based; details: Mycoplasmoides pneumoniae, read-out: in vitro MIC
Source text: as §1, §2, §3

[10] = tested on: M.dispar NCTC 10125; experiment: as above; type: cell-based; details: read-out: in vitro MIC
Source text: as §1, §2, §3

[11] = tested on: Strep.faecalis I; experiment: MIC by serial dilution in nutrient agar (human bacteria, Table 1); type: cell-based; details: Enterococcus faecalis, 5% "chocolated" horse blood
[12] = tested on: Staph.aureus Russell; experiment: as above; type: cell-based; details: Staphylococcus aureus; Staph.aureus Russell; nutrient agar, 5% "chocolated" horse blood; read-out: MIC
[13] = tested on: Haemophilus influenzae Wy21; experiment: as above; type: cell-based; details: 5% "chocolated" horse blood
[14] = tested on: Corynebacterium xerosis 9755; experiment: as above; type: cell-based; details: 5% "chocolated" horse blood
[15] = tested on: E.coli NCTC 10418; experiment: MIC by agar dilution (veterinary bacteria, Table 2); type: cell-based; details: Escherichia coli, NCTC10418, diagnostic sensitivity test agar, 24 hours, 37° C.
Protocol: (§4) The MIC values were determined by agar dilution using diagnostic sensitivity test agar (Oxoid) using a multipoint inoculator delivering 0.001 ml of an inoculum adjusted to give 10^7 -10^8 organisms per ml and read after 24 hours incubation at 37° C.

[16] = tested on: Strep.suis (group D) SPS11; experiment: as above; type: cell-based; details: Streptococcus suis, diagnostic sensitivity test agar, 24 hours, 37° C.
Protocol: as §4

[17] = tested on: Staph.aureus 152 (pen sens); experiment: as above; type: cell-based; details: Staphylococcus aureus, diagnostic sensitivity test agar, 24 hours, 37° C.
Protocol: as §4

[18] = tested on: Past.multocida PA2; experiment: as above; type: cell-based; details: Pasteurella multocida, diagnostic sensitivity test agar, 24 hours, 37° C.
Protocol: as §4

[19] = tested on: Strep.agalactiae SPA1; experiment: as above; type: cell-based; details: Streptococcus agalactiae, diagnostic sensitivity test agar, 24 hours, 37° C.
Protocol: as §4

[20] = tested on: Erysipelothrix rhusiopathiae NCTC 8163; experiment: as above; type: cell-based; details: NCTC8163, diagnostic sensitivity test agar, 24 hours, 37° C.
Protocol: as §4

[21] = tested on: Past.haemolytica PA5; experiment: as above; type: cell-based; details: Mannheimia haemolytica, diagnostic sensitivity test agar, 24 hours, 37° C.
Protocol: as §4

[22] = tested on: Strep.dysgalactiae SPD1; experiment: as above; type: cell-based; details: Streptococcus dysgalactiae, diagnostic sensitivity test agar, 24 hours, 37° C.
Protocol: as §4

[23] = tested on: Bord.bronchiseptica BO8; experiment: as above; type: cell-based; details: Bordetella bronchiseptica, diagnostic sensitivity test agar, 24 hours, 37° C.
Protocol: as §4

[24] = tested on: Bord.bronchiseptica BO9; experiment: as above; type: cell-based; details: Bordetella bronchiseptica, diagnostic sensitivity test agar, 24 hours, 37° C.
Protocol: as §4

[25] = tested on: S.dublin S7; experiment: as above; type: cell-based; details: Salmonella enterica, diagnostic sensitivity test agar, 24 hours, 37° C.
Protocol: as §4

[26] = tested on: Staph.aureus Oxford; experiment: as above; type: cell-based; details: Staphylococcus aureus, diagnostic sensitivity test agar, 24 hours, 37° C.
Protocol: as §4

[27] = tested on: E.coli E1; experiment: as above; type: cell-based; details: Escherichia coli, diagnostic sensitivity test agar, 24 hours, 37° C.
Protocol: as §4

[28] = tested on: Corynebacterium pyogenes CY1; experiment: as above; type: cell-based; details: Trueperella pyogenes, diagnostic sensitivity test agar, 24 hours, 37° C.
Protocol: as §4

[29] = tested on: Strep.uberis SPU1; experiment: as above; type: cell-based; details: Streptococcus uberis, diagnostic sensitivity test agar, 24 hours, 37° C.
Protocol: as §4

[30] = tested on: Staph.aureus B4 (pen resis); experiment: as above; type: cell-based; details: Staphylococcus aureus, diagnostic sensitivity test agar, 24 hours, 37° C.
Protocol: as §4

[31] = tested on: B. subtilis ATCC 6633; experiment: as above; type: cell-based; details: Bacillus subtilis, ATCC6633, diagnostic sensitivity test agar, 24 hours, 37° C.
Protocol: as §4

[32] = tested on: Past.multocida PA1; experiment: as above; type: cell-based; details: Pasteurella multocida, diagnostic sensitivity test agar, 24 hours, 37° C.
Protocol: as §4

[33] = tested on: S.typhimurium S18; experiment: as above; type: cell-based; details: Salmonella enterica, diagnostic sensitivity test agar, 24 hours, 37° C.
Protocol: as §4

[34] = tested on: Strep.pneumoniae CN33; experiment: MIC by serial dilution in nutrient agar (human bacteria, Table 1); type: cell-based; details: Streptococcus pneumoniae, 5% "chocolated" horse blood
[35] = tested on: Strep.pyogenes C 2761; experiment: as above; type: cell-based; details: Streptococcus pyogenes, C2761, 5% "chocolated" horse blood
[36] = tested on: Sarcina lutea 8340; experiment: as above; type: cell-based; details: Micrococcus luteus, 5% "chocolated" horse blood
[37] = tested on: Strep.pyogenes B 2788; experiment: as above; type: cell-based; details: Streptococcus pyogenes, B2788, 5% "chocolated" horse blood
[38] = tested on: Bacillus subtilis 6633; experiment: as above; type: cell-based; details: 5% "chocolated" horse blood
[39] = tested on: E.coli ESS; experiment: as above; type: cell-based; details: Escherichia coli, 5% "chocolated" horse blood
[40] = tested on: Ps. aeruginosa 10662; experiment: as above; type: cell-based; details: Pseudomonas aeruginosa, 5% "chocolated" horse blood
[41] = tested on: Gram-positive and Gram-negative organisms; details: disclosed in earlier patents; cited from earlier work
[42] = tested on: mycoplasma organisms; details: disclosed in earlier patents; cited from earlier work

Which MIC [1] does the source give for CC(=O)C(C)C1OC1CC1COC(C/C(C)=C/C(=O)OCCCCCCCCC(=O)O)C(O)C1O (stereo not drawn) [Example 4, Sodium 13--Oxopseudomonate A] here?
The MIC was 0.05 µg/mL.

What about the MIC [2] of the same compound?
Its MIC is 0.5 µg/mL.

What about the MIC [3] of the same compound?
The MIC was 1 µg/mL.

What about the MIC [4] of the same compound?
Its MIC is 0.2 µg/mL.

And the MIC [5]?
Its MIC is greater than 100 µg/mL.

And the MIC [6]?
Its MIC is greater than 100 µg/mL.

What about the MIC [7] of the same compound?
Its MIC is greater than 100 µg/mL.

And the MIC [8]?
The MIC was 31.2 µg/mL.

What about the MIC [9] of the same compound?
The MIC was 250 µg/mL.

What about the MIC [10] of the same compound?
Its MIC is 3.9 µg/mL.

And the MIC [11]?
Its MIC is greater than 100 µg/mL.

What about the MIC [12] of the same compound?
Its MIC is 0.5 µg/mL.

And the MIC [13]?
Its MIC is 0.1 µg/mL.

And the MIC [14]?
The MIC was greater than 100 µg/mL.

And the MIC [15]?
The MIC was greater than 80 µg/mL.

And the MIC [16]?
Its MIC is 20 µg/mL.

And the MIC [17]?
Its MIC is 1.25 µg/mL.

What about the MIC [18] of the same compound?
Its MIC is 0.625 µg/mL.

And the MIC [19]?
Its MIC is 10 µg/mL.

What about the MIC [20] of the same compound?
The MIC was greater than 80 µg/mL.

What about the MIC [21] of the same compound?
Its MIC is 10 µg/mL.

And the MIC [22]?
Its MIC is 1.25 µg/mL.

What about the MIC [23] of the same compound?
The MIC was 80 µg/mL.

What about the MIC [24] of the same compound?
Its MIC is 80 µg/mL.

What about the MIC [25] of the same compound?
Its MIC is greater than 80 µg/mL.

What about the MIC [26] of the same compound?
The MIC was 1.25 µg/mL.

What about the MIC [27] of the same compound?
The MIC was greater than 80 µg/mL.

And the MIC [28]?
The MIC was greater than 80 µg/mL.

What about the MIC [29] of the same compound?
The MIC was 0.312 µg/mL.

What about the MIC [30] of the same compound?
The MIC was 1.25 µg/mL.

What about the MIC [31] of the same compound?
The MIC was greater than 80 µg/mL.

What about the MIC [32] of the same compound?
Its MIC is 0.625 µg/mL.

What about the MIC [33] of the same compound?
The MIC was greater than 80 µg/mL.

And the MIC [34]?
The MIC was 0.5 µg/mL.

What about the MIC [35] of the same compound?
Its MIC is 0.5 µg/mL.

And the MIC [36]?
The MIC was greater than 100 µg/mL.

And the MIC [37]?
Its MIC is 1 µg/mL.

What about the MIC [38] of the same compound?
The MIC was 0.1 µg/mL.

What about the MIC [39] of the same compound?
Its MIC is 2.5 µg/mL.

What about the MIC [40] of the same compound?
Its MIC is greater than 100 µg/mL.

Which results are given for C/C(=C\C(=O)O)CC1OCC(CC2OC2C(C)C(C)O)C(O)C1O (stereo not drawn) [monic acid A]?
antibacterial activity [41]: does not appear to have antibacterial or anti-mycoplasmal activity; anti-mycoplasmal activity [42]: does not appear to have antibacterial or anti-mycoplasmal activity
